Structures are written as SMILES. Values after ≈ are worked out from the molar mass of the structure shown. Where a name gives a salt, the structure may show the parent alone. Read-outs that look alike come from different tables or passages of the source. Where only a bound is given, the exact number is not on record here.

Format in all cases: cell-based
The test system of one experiment is B. subtilis. Briefly: MIC on (nutrient) agar. The settings on record: Bacillus subtilis; B. subtilis, agar; read-out: minimum inhibitory concentration (MIC).
For a further experiment, the system named is E. coli JT 1. Briefly: MIC on nutrient agar. The following applies: Escherichia coli.
Another experiment deals with β-Haemolytic Strep. CN10. Briefly: MIC on (nutrient) agar. The following applies: β-Haemolytic Strep. CN10, agar; read-out: minimum inhibitory concentration (MIC).
For a further experiment, the system named is Staph. aureus Oxford. The experiment can be described thus: MIC on (nutrient) agar. The settings on record: Staphylococcus aureus, read-out: minimum inhibitory concentration (MIC).
The next experiment deals with Klebsiella aerogenes A. The experiment can be described thus: MIC on nutrient agar. The following applies: read-out: minimum inhibitory concentration (MIC).
The next experiment deals with Shigella sonnei. Briefly: MIC on nutrient agar. The following applies: read-out: minimum inhibitory concentration (MIC).
For the next experiment, the system named is Salmonella typhi. The experiment can be described thus: MIC on nutrient agar. The settings on record: Salmonella enterica, read-out: minimum inhibitory concentration (MIC).
Another experiment deals with Proteus mirabilis C977. The experiment can be described thus: MIC on nutrient agar.
The next experiment concerns Staph. aureus Russell. The experiment can be described thus: MIC on (nutrient) agar. The following applies: Staphylococcus aureus; Staph. aureus Russell, agar; read-out: minimum inhibitory concentration (MIC).
Experiment [1] relates to Gram-positive and Gram-negative organisms. The experiment can be described thus: antibacterial activity (general statement). The settings on record: in words.
Setting [2] is: JT1, E. coli JT 1, nutrient agar, read-out: minimum inhibitory concentration (MIC).
Setting [3] is: Klebsiella aerogenes A, nutrient agar.
[4] abbreviates: Proteus mirabilis C977, nutrient agar, read-out: minimum inhibitory concentration (MIC).
Setting [5] is: JT1, read-out: minimum inhibitory concentration (MIC).

Take `NC(C(=O)N[C@@H]1C(=O)N2C(C(=O)O)=C(Cc3cccnc3)CS[C@H]12)c1cccs1` (stereo partly drawn) [Example 15, 7-β-[(dl)-α-Amino-2-thienylacetamido]-3-(3-pyridylmethyl)-3-cephem-4-carboxylic acid Di-trifluoroacetic acid salt]: the MIC in the experiment on B. subtilis is 1.25 µg/mL; in the experiment with E. coli JT 1 (setting [2]) it was 12.5 µg/mL; in the experiment on β-Haemolytic Strep. CN10 it was 0.5 µg/mL; in the experiment on Staph. aureus Oxford it was 0.5 µg/mL; with Klebsiella aerogenes A (setting [3]) it was 5 µg/mL; in the experiment on Shigella sonnei, 5 µg/mL. In addition, the MIC was 2.5 µg/mL with Salmonella typhi, 12.5 µg/mL with Proteus mirabilis C977 (setting [4]) and 5 µg/mL in the experiment with Staph. aureus Russell.

`O=C(Cc1ccncc1)N[C@@H]1C(=O)N2C(C(=O)O)=C(Cc3cccnc3)CS[C@H]12` [Example 17, 7β(4-pyridylacetamido)-3(3-pyridylmethyl)-3-cephem-4-carboxylic acid di-trifluoroacetic acid salt]: the MIC turned out to be 0.25 µg/mL in the experiment with B. subtilis; 25 µg/mL with E. coli JT 1 (setting [2]); 0.12 µg/mL with β-Haemolytic Strep. CN10; 0.12 µg/mL in the experiment on Staph. aureus Oxford; 10 µg/mL with Klebsiella aerogenes A (setting [3]); 25 µg/mL in the experiment with Shigella sonnei. Further, the MIC is 10 µg/mL with Salmonella typhi, 10 µg/mL with Proteus mirabilis C977 (setting [4]) and 25 µg/mL with Staph. aureus Russell.

With `CN(C(=O)C=Cc1ccccc1)C(=O)N[C@@H](C(=O)N[C@@H]1C(=O)N2C(C(=O)O)=C(Cc3cccnc3)CS[C@H]12)c1ccccc1` [Example 20], the MIC in the experiment with B. subtilis is 32 µg/mL (≈ 52.3 µM); in the experiment with E. coli JT 1 (setting [5]) it was 125 µg/mL (≈ 204 µM); in the experiment on β-Haemolytic Strep. CN10 it was 0.25 µg/mL (≈ 0.409 µM); with Staph. aureus Oxford it was 4 µg/mL (≈ 6.54 µM); in the experiment with Klebsiella aerogenes A (setting [3]), 63 µg/mL (≈ 103 µM); in the experiment with Shigella sonnei, 63 µg/mL (≈ 103 µM). Also, the MIC in the experiment with Salmonella typhi is over 125 µg/mL; in the experiment on Proteus mirabilis C977 (Proteus mirabilis, C977, read-out: minimum inhibitory concentration (MIC)), over 125 µg/mL; in the experiment with Staph. aureus Russell, 63 µg/mL (≈ 103 µM).

As to `NC(CC(=O)N[C@@H]1C(=O)N2C(C(=O)O)=C(Cc3cccnc3)CS[C@H]12)C1CC=CCC1` (mixture of isomers) [Example 18, 7β-(DL-3-[cyclohex-3-ene]-3-aminopropionamido)-3(3-pyridylmethyl)-3-cephem-4-carboxylic acid di-trifluoroacetic acid salt], the MIC in the experiment with B. subtilis was 1.25 µg/mL; in the experiment on E. coli JT 1 (setting [5]), 125 µg/mL; in the experiment with β-Haemolytic Strep. CN10, 0.5 µg/mL; in the experiment on Staph. aureus Oxford, 0.5 µg/mL; in the experiment on Klebsiella aerogenes A (Klebsiella aerogenes), 125 µg/mL; in the experiment with Shigella sonnei it was 125 µg/mL. In addition, the MIC in the experiment with Salmonella typhi turned out to be 125 µg/mL; in the experiment with Proteus mirabilis C977 (setting [4]), 250 µg/mL; in the experiment with Staph. aureus Russell, 1.25 µg/mL.

On to `O=C(Cc1cccs1)N[C@@H]1C(=O)N2C(C(=O)O)=C(Cc3cccnc3)CS[C@H]12` [Example 2, 3(3-pyridylmethyl)-7β-(2-thienylacetamido)-3-cephem-4-carboxylic acid], for which the antibacterial activity entry in [1] is recorded as “essentially similar to the trifluoroacetate salt described in Example 1”.

Take `NC(C(=O)N[C@@H]1C(=O)N2C(C(=O)O)=C(Cc3cccnc3)CS[C@H]12)C1CC1` (mixture of isomers) [Example 19, 7β-(DL-α-aminocyclopropylacetamido)-3(3-pyridylmethyl)-3-cephem-4-carboxylic acid di-trifluoroacetic acid salt]: the MIC is 12.5 µg/mL in the experiment on B. subtilis; 500 µg/mL in the experiment on E. coli JT 1 (setting [2]); 2.5 µg/mL in the experiment on β-Haemolytic Strep. CN10; 5 µg/mL in the experiment with Staph. aureus Oxford; 250 µg/mL in the experiment with Klebsiella aerogenes A (setting [3]); 250 µg/mL in the experiment with Shigella sonnei. Also, the results for the MIC in the experiment with Salmonella typhi, with Proteus mirabilis C977 (setting [4]) and in the experiment with Staph. aureus Russell were 250 µg/mL, 500 µg/mL and 12.5 µg/mL, respectively.

The values above are taken from US3966718A, “7-β-Acylamino-ceph-3-ems and salts and esters therefor” (Beecham Group Limited, priority 1973, dated 1976).
